The record followed here is patent US20020022657A1, “Methods for modulating neuronal cell death” (priority 1998, published 2002).

For the experiment, the system named is Aβ-induced toxicity. The experiment is described as follows: Aβ-induced toxicity, neuroprotection by Aβ-interferer (FIG. 6). To be noted: Aβ: laminin molar ratio of 1:10^−3; internal positive control. In kind it is cell-based.

For laminin, the Aβ-induced toxicity result is recorded as “neuroprotective”.
